The values below come from US8129417B2, “Substituted octahydrocyclopenta[C]pyrrol-4-amines as calcium channel blockers” (Abbott Laboratories, priority 2008, dated 2012).

Sequence of human Cav2.2 (Q00975 whole entry): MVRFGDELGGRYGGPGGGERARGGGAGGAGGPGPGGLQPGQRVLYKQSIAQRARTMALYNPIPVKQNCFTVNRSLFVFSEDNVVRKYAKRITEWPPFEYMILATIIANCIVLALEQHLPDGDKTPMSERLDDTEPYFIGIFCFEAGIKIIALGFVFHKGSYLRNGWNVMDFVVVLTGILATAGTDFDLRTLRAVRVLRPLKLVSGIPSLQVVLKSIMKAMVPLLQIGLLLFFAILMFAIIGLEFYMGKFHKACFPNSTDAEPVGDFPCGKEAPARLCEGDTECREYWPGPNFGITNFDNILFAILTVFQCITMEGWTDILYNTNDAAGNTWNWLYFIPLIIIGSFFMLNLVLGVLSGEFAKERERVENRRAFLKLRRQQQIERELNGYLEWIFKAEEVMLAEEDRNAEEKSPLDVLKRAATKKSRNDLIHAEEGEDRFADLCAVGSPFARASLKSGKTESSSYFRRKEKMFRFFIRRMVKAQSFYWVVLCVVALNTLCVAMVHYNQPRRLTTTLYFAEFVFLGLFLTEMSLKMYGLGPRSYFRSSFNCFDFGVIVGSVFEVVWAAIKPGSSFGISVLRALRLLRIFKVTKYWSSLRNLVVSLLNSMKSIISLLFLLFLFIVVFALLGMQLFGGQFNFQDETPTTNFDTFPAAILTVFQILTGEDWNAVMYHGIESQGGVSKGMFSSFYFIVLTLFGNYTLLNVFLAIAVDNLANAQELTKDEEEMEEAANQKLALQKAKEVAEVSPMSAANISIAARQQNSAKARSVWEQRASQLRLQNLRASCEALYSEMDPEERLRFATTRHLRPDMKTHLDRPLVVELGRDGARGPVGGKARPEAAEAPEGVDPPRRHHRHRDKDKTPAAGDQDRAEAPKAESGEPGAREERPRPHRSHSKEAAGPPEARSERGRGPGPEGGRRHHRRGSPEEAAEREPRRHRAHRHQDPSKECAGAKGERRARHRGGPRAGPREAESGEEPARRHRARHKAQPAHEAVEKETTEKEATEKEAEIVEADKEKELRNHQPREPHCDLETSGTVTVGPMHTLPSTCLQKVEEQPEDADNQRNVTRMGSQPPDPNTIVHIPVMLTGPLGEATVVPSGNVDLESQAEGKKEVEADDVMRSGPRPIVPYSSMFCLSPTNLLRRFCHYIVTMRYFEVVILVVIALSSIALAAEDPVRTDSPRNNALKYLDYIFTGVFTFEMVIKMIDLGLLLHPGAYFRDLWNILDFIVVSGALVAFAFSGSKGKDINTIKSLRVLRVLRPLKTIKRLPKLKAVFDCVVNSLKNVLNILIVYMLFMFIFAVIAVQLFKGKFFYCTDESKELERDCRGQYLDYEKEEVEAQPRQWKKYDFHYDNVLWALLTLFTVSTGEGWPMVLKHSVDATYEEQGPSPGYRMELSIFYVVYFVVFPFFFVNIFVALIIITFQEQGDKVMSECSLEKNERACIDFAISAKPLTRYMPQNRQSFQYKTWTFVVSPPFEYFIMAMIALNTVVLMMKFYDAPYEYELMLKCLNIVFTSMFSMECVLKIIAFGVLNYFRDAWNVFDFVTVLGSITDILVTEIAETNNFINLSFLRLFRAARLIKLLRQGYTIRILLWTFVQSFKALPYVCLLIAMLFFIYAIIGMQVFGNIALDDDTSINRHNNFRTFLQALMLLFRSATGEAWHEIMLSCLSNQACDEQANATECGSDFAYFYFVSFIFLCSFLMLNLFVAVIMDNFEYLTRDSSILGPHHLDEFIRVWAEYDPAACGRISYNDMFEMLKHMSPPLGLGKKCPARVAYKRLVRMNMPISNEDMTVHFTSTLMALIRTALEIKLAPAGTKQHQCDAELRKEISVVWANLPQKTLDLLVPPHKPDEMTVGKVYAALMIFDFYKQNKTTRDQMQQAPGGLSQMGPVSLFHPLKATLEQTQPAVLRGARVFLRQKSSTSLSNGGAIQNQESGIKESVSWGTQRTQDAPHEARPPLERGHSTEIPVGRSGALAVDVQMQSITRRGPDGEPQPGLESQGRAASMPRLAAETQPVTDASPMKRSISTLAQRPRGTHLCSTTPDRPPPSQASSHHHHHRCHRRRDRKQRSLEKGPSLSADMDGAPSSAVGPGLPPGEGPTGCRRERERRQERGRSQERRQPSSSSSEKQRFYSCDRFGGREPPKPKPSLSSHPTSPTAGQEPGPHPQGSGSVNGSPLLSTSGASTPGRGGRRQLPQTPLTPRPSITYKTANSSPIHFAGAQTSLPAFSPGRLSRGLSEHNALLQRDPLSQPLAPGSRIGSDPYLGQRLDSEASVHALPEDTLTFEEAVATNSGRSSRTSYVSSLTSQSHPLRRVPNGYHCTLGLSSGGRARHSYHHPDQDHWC
Sequence of human Cav2.2 (P54289 25-946 partner limits assumed): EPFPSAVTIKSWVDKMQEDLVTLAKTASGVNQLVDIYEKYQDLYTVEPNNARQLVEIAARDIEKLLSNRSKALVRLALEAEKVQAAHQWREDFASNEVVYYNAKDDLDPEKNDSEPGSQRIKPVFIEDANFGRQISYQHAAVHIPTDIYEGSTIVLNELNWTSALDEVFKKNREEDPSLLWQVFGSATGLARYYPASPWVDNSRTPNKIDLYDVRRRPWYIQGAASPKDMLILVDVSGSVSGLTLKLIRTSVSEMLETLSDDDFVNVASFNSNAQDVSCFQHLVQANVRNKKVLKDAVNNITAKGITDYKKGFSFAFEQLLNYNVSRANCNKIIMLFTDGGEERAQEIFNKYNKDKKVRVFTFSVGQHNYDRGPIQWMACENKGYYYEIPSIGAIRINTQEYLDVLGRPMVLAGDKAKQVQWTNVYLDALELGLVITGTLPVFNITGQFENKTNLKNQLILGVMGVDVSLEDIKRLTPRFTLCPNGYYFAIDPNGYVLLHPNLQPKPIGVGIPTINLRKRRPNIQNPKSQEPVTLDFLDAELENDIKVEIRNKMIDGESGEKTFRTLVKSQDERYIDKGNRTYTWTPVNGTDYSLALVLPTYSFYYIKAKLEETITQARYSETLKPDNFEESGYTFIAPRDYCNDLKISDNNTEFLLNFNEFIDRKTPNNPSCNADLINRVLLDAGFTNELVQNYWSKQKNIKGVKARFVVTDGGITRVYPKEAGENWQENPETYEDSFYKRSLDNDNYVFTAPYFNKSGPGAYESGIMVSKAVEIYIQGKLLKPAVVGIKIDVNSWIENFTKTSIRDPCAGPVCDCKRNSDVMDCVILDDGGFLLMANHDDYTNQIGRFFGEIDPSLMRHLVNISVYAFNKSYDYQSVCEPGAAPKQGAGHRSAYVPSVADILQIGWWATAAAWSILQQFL
Sequence of human Cav2.2 (P54289 947-1103 partner limits assumed): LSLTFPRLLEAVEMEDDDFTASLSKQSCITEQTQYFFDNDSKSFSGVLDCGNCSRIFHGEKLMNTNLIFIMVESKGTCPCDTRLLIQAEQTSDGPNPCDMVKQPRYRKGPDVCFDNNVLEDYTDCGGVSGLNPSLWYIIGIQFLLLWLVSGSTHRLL
Sequence of human Cav2.2 (P54284 whole entry partner): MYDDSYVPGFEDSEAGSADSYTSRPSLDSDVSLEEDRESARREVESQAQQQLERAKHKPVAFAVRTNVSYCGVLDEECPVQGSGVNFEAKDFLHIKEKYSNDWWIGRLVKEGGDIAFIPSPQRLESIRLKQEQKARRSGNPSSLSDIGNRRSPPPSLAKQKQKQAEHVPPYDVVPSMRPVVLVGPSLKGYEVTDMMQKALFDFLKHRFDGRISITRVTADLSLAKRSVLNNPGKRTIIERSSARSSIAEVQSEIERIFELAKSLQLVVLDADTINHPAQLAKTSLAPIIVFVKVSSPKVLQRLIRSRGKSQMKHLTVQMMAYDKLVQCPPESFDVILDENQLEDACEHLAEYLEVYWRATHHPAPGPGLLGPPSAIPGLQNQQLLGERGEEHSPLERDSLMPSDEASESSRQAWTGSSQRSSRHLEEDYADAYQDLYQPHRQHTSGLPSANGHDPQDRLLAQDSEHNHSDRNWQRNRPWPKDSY

In one experiment the target is human Cav2.2 (Homo sapiens, UniProt Q00975). The experiment can be described thus: Assessment of calcium channel activity using FLIPR (Ca2+ influx in IMR32 cells). It counts as cell-based. The following applies: 3 minute pre-incubation with compound (*), 2 μM nifedipine, depolarized with 80 mM KCl. Here is the method:
(i) In Vitro Methods—Assessment of Calcium Channel Activity Using FLIPR:
The IMR32 cells were maintained in MEM media containing 10% (v/v) FBS, 1% (v/v) antibiotic/antimitotic, 1% (v/v) sodium pyruvate and 1% (v/v) MEM NEAA. Following dissociation in 0.05% (v/v) trypsin/EDTA, cells were seeded into black 1×96-well plates (Corning Cellbind) at a density of 1-1.2×10^5 cells/well and incubated in the maintenance media above for 48 hours at 37° C. […] To determine the IC50 values, the percent inhibition of the compound at each concentration was determined relative to the activity in the absence of inhibitor, and data was fitted using non-linear regression sigmoidal dose response curve analysis with GraphPad Prism®.
On to `O=C(N[C@H]1CC[C@H]2CN(Cc3ccccc3)C[C@H]21)C1(c2ccccc2)CCCC1` (relative stereo) [Example 1, N-[(3aS*,4S*,6aR*)-2-benzyloctahydrocyclopenta[c]pyrrol-4-yl]-1-phenylcyclopentanecarboxamide], for which the IC50 stood at 3.5 µM.
For `O=C(N[C@@H]1CC[C@H]2CN(Cc3ccccc3)C[C@H]21)C1(c2ccccc2)CCCC1` (relative stereo) [Example 2, N-[(3aS*,4R*,6aR*)-2-benzyloctahydrocyclopenta[c]pyrrol-4-yl]-1-phenylcyclopentanecarboxamide], the IC50 was found to be 4.2 µM.
`CC(C)C(C(=O)N[C@@H]1CC[C@@H]2CN(Cc3ccccc3)C[C@@H]21)c1ccccc1` (relative stereo) [Example 5, N-[(3aR*,4R*,6aS*)-2-benzyloctahydrocyclopenta[c]pyrrol-4-yl]-3-methyl-2-phenylbutanamide]: the half-inhibitory concentration (IC50) was found to be 3.8 µM.
On the same count and under the same terms, the value for `CC(C)C(C(=O)N[C@H]1CC[C@@H]2CN(Cc3ccccc3)C[C@@H]21)c1ccccc1` (relative stereo) [Example 6, N-[(3aR*,4S*,6aS*)-2-benzyloctahydrocyclopenta[c]pyrrol-4-yl]-3-methyl-2-phenylbutanamide] was 2.2 µM; that for `O=C(N[C@H]1CC[C@H]2CN(Cc3ccccc3)C[C@H]21)C(c1ccccc1)C1CCCC1` (relative stereo) [Example 7, N-[(3aS*,4S*,6aR*)-2-benzyloctahydrocyclopenta[c]pyrrol-4-yl]-2-cyclopentyl-2-phenylacetamide] was 1.8 µM.
Same read-out and setting: the value for `O=C(N[C@H]1CC[C@H]2CN(Cc3ccccc3)C[C@H]21)C1(c2ccccc2)CCCCC1` (relative stereo) [Example 9, N-[(3aS*,4S*,6aR*)-2-benzyloctahydrocyclopenta[c]pyrrol-4-yl]-1-phenylcyclohexanecarboxamide] was 1.8 µM; that for `O=C(N[C@@H]1CC[C@H]2CN(Cc3ccccc3)C[C@H]21)C1(c2ccccc2)CCCCC1` (relative stereo) [Example 10, N-[(3aS*,4R*,6aR*)-2-benzyloctahydrocyclopenta[c]pyrrol-4-yl]-1-phenylcyclohexanecarboxamide] was 1.3 µM.

The same experiment, now with this note: 60 minute pre-incubation with compound, 2 μM nifedipine, depolarized with 80 mM KCl.
For `O=C(N[C@H]1CC[C@H]2CN(Cc3ccccc3)C[C@H]21)C(C1CCCCC1)C1CCCCC1` (relative stereo) [Example 11, N-[(3aS*,4S*,6aR*)-2-benzyloctahydrocyclopenta[c]pyrrol-4-yl]-2,2-dicyclohexylacetamide], the IC50 was found to be 4 µM.
The same measure, in the same setting: the value for `CC(C)C(C(=O)N[C@H]1CC[C@H]2CN(Cc3cccc(C(F)(F)F)c3)C[C@H]21)c1ccccc1` (relative stereo) [Example 122, 3-methyl-2-phenyl-N-{(3aS*,4S*,6aR*)-2-[3-(trifluoromethyl)benzyl]octahydrocyclopenta[c]pyrrol-4-yl}butanamide] was 0.6 µM.
On the same count and under the same terms, the value for `O=C(N[C@H]1CC[C@H]2CN(Cc3cccc(C(F)(F)F)c3)C[C@H]21)C(C1CCCCC1)C1CCCCC1` (relative stereo) [Example 124, 2,2-dicyclohexyl-N-{(3aS*,4S*,6aR*)-2-[3-(trifluoromethyl)benzyl]octahydrocyclopenta[c]pyrrol-4-yl}acetamide] was 0.7 µM; that for `CCC(CC)C(=O)N[C@H]1CC[C@H]2CN(Cc3cccc(C(F)(F)F)c3)C[C@H]21` (relative stereo) [Example 125, 2-ethyl-N-{(3aS*,4S*,6aR*)-2-[3-(trifluoromethyl)benzyl]octahydrocyclopenta[c]pyrrol-4-yl}butanamide] was 2.8 µM.
Same read-out and setting: the value for `CCCC(CCC)C(=O)N[C@H]1CC[C@H]2CN(Cc3cccc(C(F)(F)F)c3)C[C@H]21` (relative stereo) [Example 126, 2-propyl-N-{(3aS*,4S*,6aR*)-2-[3-(trifluoromethyl)benzyl]octahydrocyclopenta[c]pyrrol-4-yl}pentanamide] was 1 µM; that for `O=C(N[C@H]1CC[C@H]2CN(Cc3cccc(C(F)(F)F)c3)C[C@H]21)C1CCCCC1` (relative stereo) [Example 127, N-{(3aS*,4S*,6aR*)-2-[3-(trifluoromethyl)benzyl]octahydrocyclopenta[c]pyrrol-4-yl}cyclohexanecarboxamide] was 1.5 µM; that for `O=C(N[C@H]1CC[C@H]2CN(Cc3cccc(C(F)(F)F)c3)C[C@H]21)C1CCCCCC1` (relative stereo) [Example 128, N-{(3aS*,4S*,6aR*)-2-[3-(trifluoromethyl)benzyl]octahydrocyclopenta[c]pyrrol-4-yl}cycloheptanecarboxamide] was 1 µM.
Regarding `O=C(N[C@H]1CC[C@H]2CN(Cc3cccc(C(F)(F)F)c3)C[C@H]21)C1CCCC1` (relative stereo) [Example 129, N-{(3aS*,4S*,6aR*)-2-[3-(trifluoromethyl)benzyl]octahydrocyclopenta[c]pyrrol-4-yl}cyclopentanecarboxamide], the IC50 stood at 2.9 µM.
The same measure, in the same setting: as for `O=C(CC(c1ccccc1)c1ccccc1)N[C@H]1CC[C@H]2CN(Cc3cccc(C(F)(F)F)c3)C[C@H]21` (relative stereo) [Example 131, 3,3-diphenyl-N-{(3aS*,4S*,6aR*)-2-[3-(trifluoromethyl)benzyl]octahydrocyclopenta[c]pyrrol-4-yl}propanamide], the figure is 0.7 µM; as for `O=C(N[C@H]1CC[C@H]2CN(Cc3cccc(C(F)(F)F)c3)C[C@H]21)C(c1ccccc1)c1ccccc1` (relative stereo) [Example 135, 2,2-diphenyl-N-{(3aS*,4S*,6aR*)-2-[3-(trifluoromethyl)benzyl]octahydrocyclopenta[c]pyrrol-4-yl}acetamide], 0.9 µM; as for `O=C(N[C@H]1CC[C@H]2CN(Cc3cccc(C(F)(F)F)c3)C[C@H]21)C(c1ccc(F)cc1)c1ccc(F)cc1` (relative stereo) [Example 136, 2,2-bis(4-fluorophenyl)-N-{(3aS*,4S*,6aR*)-2-[3-(trifluoromethyl)benzyl]octahydrocyclopenta[c]pyrrol-4-yl}acetamide], 1.1 µM.
Take `CC(C)C[C@H](NC(=O)OC(C)(C)C)C(=O)N[C@@H]1CC[C@@H]2CN(Cc3cccc(C(F)(F)F)c3)C[C@@H]21` (relative stereo) [Example 137, N^2-(tert-butyloxycarbonyl)-N^1-{(3aR*,4R*,6aS*)-2-[3-(trifluoromethyl)benzyl]octahydrocyclopenta[c]pyrrol-4-yl}-L-leucinamide]: the IC50 is 0.6 µM.
Take `O=C(CC(c1ccccc1)c1ccccc1)N[C@@H]1CC[C@H]2CN(Cc3cccc(C(F)(F)F)c3)C[C@H]21` (relative stereo) [Example 141, 3,3-diphenyl-N-{(3aS*,4R*,6aR*)-2-[3-(trifluoromethyl)benzyl]octahydrocyclopenta[c]pyrrol-4-yl}propanamide]: the IC50 turned out to be 0.6 µM.
Same read-out and setting: the value for `c1ccc(CN2C[C@@H]3CC[C@@H](NC4CC4)[C@@H]3C2)cc1` (relative stereo) [Example 197, (3aS*,4R*,6aR*)-2-benzyl-N-cyclopropyloctahydrocyclopenta[c]pyrrol-4-amine] was 69.7 µM; that for `c1ccc(CN2C[C@@H]3CC[C@H](NC4CC4)[C@@H]3C2)cc1` (relative stereo) [Example 198, (3aS*,4S*,6aR*)-2-benzyl-N-cyclopropyloctahydrocyclopenta[c]pyrrol-4-amine] was 40.4 µM.
Still for that read-out and setting: as for `O=S(=O)(c1cccc(C(F)(F)F)c1)N(C1CC1)[C@@H]1CC[C@H]2CN(Cc3ccccc3)C[C@H]21` (relative stereo) [Example 200, N-[(3aS*,4R*,6aR*)-2-benzyloctahydrocyclopenta[c]pyrrol-4-yl]-N-cyclopropyl-3-(trifluoromethyl)benzenesulfonamide], the figure is 1 µM.
Still for that read-out and setting: as for `O=S(=O)(c1cccc(C(F)(F)F)c1)N(C1CC1)[C@H]1CC[C@H]2CNC[C@H]21` (relative stereo) [Example 201, N-cyclopropyl-N-[(3aS*,4S*,6aR*)-octahydrocyclopenta[c]pyrrol-4-yl]-3-(trifluoromethyl)benzenesulfonamide], the figure is 5.2 µM; as for `O=S(=O)(N[C@H]1CC[C@H]2CN(Cc3cccc(C(F)(F)F)c3)C[C@H]21)c1cccc(C(F)(F)F)c1` (single isomer, unassigned) [Example 186, 3-(trifluoromethyl)-N-{(3aS*,4S*,6aR*)-2-[3-(trifluoromethyl)benzyl]octahydrocyclopenta[c]pyrrol-4-yl}benzenesulfonamide], 0.6 µM.

Staying with this experiment, now noted: IMR-32, @ 10 μM, 3 minute pre-incubation (*), read-out: percent inhibition.
Turning to `CC(C)C(C(=O)N1C[C@H]2CC[C@H](NCc3ccccc3)[C@H]2C1)c1ccccc1` (relative stereo) [Example 216, (3aR*,4S*,6aS*)-N-benzyl-2-(3-methyl-2-phenylbutanoyl)octahydrocyclopenta[c]pyrrol-4-amine], the inhibition at 10 µM is 85%.
On to `C[C@H](C(=O)N[C@@H]1CC[C@H]2CN(Cc3ccccc3)C[C@H]21)c1ccccc1` [Example 19, (2S)—N-[(3aS,4R,6aR)-2-benzyloctahydrocyclopenta[c]pyrrol-4-yl]-2-phenylpropanamide], for which the inhibition at 10 µM was found to be 25%.

Still in this experiment, the particulars now being: IMR-32, @ 10 μM, 60 minute pre-incubation, read-out: percent inhibition.
Turning to `O=C(N[C@@H]1CC[C@@H]2CN(Cc3ccccc3)C[C@@H]21)C(c1ccccc1)C1CCCCC1` (relative stereo) [Example 3, N-[(3aR*,4R*,6aS*)-2-benzyloctahydrocyclopenta[c]pyrrol-4-yl]-2-cyclohexyl-2-phenylacetamide], the inhibition at 10 µM worked out at 91%.
